Data from the supplement of paper PMC10307832.

Experiments:
Test in all cases: relative viability (nuclei count vs DMSO), 5 days (fraction); higher = more cells survive
Daporinad + Tozasertib = compound: O=C(/C=C/c1cccnc1)NCCCCC1CCN(C(=O)c2ccccc2)CC1 [Daporinad] + Cc1cc(Nc2cc(N3CCN(C)CC3)nc(Sc3ccc(NC(=O)C4CC4)cc3)n2)n[nH]1 [Tozasertib] (partner 0.1 µM)
Summary of the method: (§1)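 Relative viability divides the nuclei count in treated wells by that in vehicle wells. Lung cancer cell lines were seeded in 1536-well plates, dosed by pin tool the next day, and fixed and stained after 5 days in one step with final 0.05% Triton X-100, 1% formaldehyde and 1 ug/ml Hoechst. Dosing was a single drug or a fixed anchor-drug dose plus five library-drug doses (not always all listed) in √10 steps, and values are medians of duplicate plates imaged at 4×.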

Daporinad + Decitabine = compound: O=C(/C=C/c1cccnc1)NCCCCC1CCN(C(=O)c2ccccc2)CC1 [Daporinad] + Nc1ncn([C@H]2C[C@H](O)[C@@H](CO)O2)c(=O)n1 [Decitabine] (partner 2 µM)
Summary of the method: as §1

R406 + Navitoclax = compound: COc1cc(Nc2ncc(F)c(Nc3ccc4c(n3)NC(=O)C(C)(C)O4)n2)cc(OC)c1OC [R406] + CC1(C)CCC(c2ccc(Cl)cc2)=C(CN2CCN(c3ccc(C(=O)NS(=O)(=O)c4ccc(N[C@H](CCN5CCOCC5)CSc5ccccc5)c(S(=O)(=O)C(F)(F)F)c4)cc3)CC2)C1 [Navitoclax] (partner 0.5 µM)
Summary of the method: as §1

Daporinad + Phenformin = compound: O=C(/C=C/c1cccnc1)NCCCCC1CCN(C(=O)c2ccccc2)CC1 [Daporinad] + N=C(N)NC(=N)NCCc1ccccc1 [Phenformin] (partner 250 µM)
Summary of the method: as §1

## UMC-11
Daporinad + Tozasertib; first compound 0.0005 µM
  relative viability: 0.21
Daporinad + Tozasertib; first compound 0.001581 µM
  relative viability: 0.208
Daporinad + Tozasertib; first compound 0.005 µM
  relative viability: 0.207
Daporinad + Tozasertib; first compound 0.01581 µM
  relative viability: 0.2
Daporinad + Decitabine; first compound 0.0005 µM
  relative viability: 0.558
Daporinad + Decitabine; first compound 0.001581 µM
  relative viability: 0.813
Daporinad + Decitabine; first compound 0.005 µM
  relative viability: 0.625
Daporinad + Decitabine; first compound 0.01581 µM
  relative viability: 0.54
R406 + Navitoclax; first compound 0.08 µM
  relative viability: 0.357
R406 + Navitoclax; first compound 0.253 µM
  relative viability: 0.321
R406 + Navitoclax; first compound 0.8 µM
  relative viability: 0.295
R406 + Navitoclax; first compound 2.53 µM
  relative viability: 0.288
R406 + Navitoclax; first compound 8 µM
  relative viability: 0.191
Daporinad + Phenformin; first compound 0.0005 µM
  relative viability: 0.266
Daporinad + Phenformin; first compound 0.001581 µM
  relative viability: 0.348
Daporinad + Phenformin; first compound 0.005 µM
  relative viability: 0.353
Daporinad + Phenformin; first compound 0.01581 µM
  relative viability: 0.367
